Measured values reported in US20250257041A1, “INDUCERS OF INTEGRATED STRESS RESPONSE TO TREAT CANCER” (The Board of Regents of The University of Texas System, priority 2022, published 2025).

Each compound was assayed on HCT116 WT (assay: Proliferation of HCT116 colorectal cell line, Cell TiterGlo). Details: Homo sapiens, HCT-116, read-out: HCT116 IC50 (uM) HCT116 WT.
Assay type: cell-based, human
Experimental: Briefly, compounds were tested for their effect on proliferation of HCT116 colorectal cell lines using Cell TiterGlo (Promega). Each compound was tested in a 10-point dose response experiment in triplicate. Multiple values in the column titled HCT116 WT reflect separate independent experiments. The three columns titled “HCT116 WT (repeat)”, “HCT116-CGN2KO” and “HCT116 WT+ISRIB” provide data for selected compounds that were tested simultaneously under three conditions. The HCT116 WT column lists IC50 against the wild type HCT116 colorectal cancer cell line. The HCT116-CGN2KO lists IC50 data for cells in which one component of the integrated stress response, GCN2, has been knocked out using CRISPR technology.

Structure (SMILES)	IC50
Cn1nc(-c2ccc(NC(=O)c3ccccc3COCCN=[N+]=[N-])cc2)cc1NC(=O)c1cccc(C2(C(F)(F)F)N=N2)c1 [SW394739, 2-((2-azidoethoxy)methyl)-N-(4-(1-methyl-5-(3-(3-(trifluoromethyl)-3H-diazirin-3-yl)benzamido)-1H-pyrazol-3-yl)phenyl)benzamide]	0.4 µM

Same assay, conditions: Homo sapiens, HCT-116, wild type HCT116; 10-point dose response in triplicate; multiple values = separate independent experiments; read-out: HCT116 IC50 (uM) HCT116 WT

IC50	Structure (SMILES)
0.5 µM	Cn1nc(-c2ccc(NC(=O)c3ccccc3Cl)cc2)cc1NC(=O)c1cccc(CCCNC(=O)CCCC[C@H]2SC[C@H]3NC(=O)N[C@H]32)c1 [SW394692, 2-chloro-N-(4-(1-methyl-5-(3-(3-(5-((3aR,4R,6aS)-2-oxohexahydro-1H-thieno[3,4-d]142 imidazole-4-yl)pentanamido)propyl)benzamido)-1H-pyrazol-3-yl)phenyl)benzamide]
0.17 µM	Cn1nc(-c2ccc(NC(=O)c3ccccc3Cl)cc2)cc1NC(=O)c1cccc(C#CCN)c1 [SW394693, N-(4-(5-(3-(3-aminoprop-1-yn-1-yl)benzamido)-1-methyl-1H-pyrazol-3-yl)phenyl)-2-chlorobenzamide]
0.03 µM	Cc1ncccc1C(=O)Nc1ccc(-c2cc(NC(=O)c3ccccc3)n(C)n2)c(F)c1 [SW394694, N-(4-(5-Benzamido-1-methyl-1H-pyrazol-3-yl)-3-fluorophenyl)-2-methylnicotinamide]
0.03 µM	Cc1ncccc1C(=O)Nc1ccc(-c2cc(NC(=O)c3ccccc3F)n(C)n2)c(F)c1 [SW394695, N-(3-Fluoro-4-(5-(2-fluorobenzamido)-1-methyl-1H-pyrazol-3-yl)phenyl)-2-methylnicotinamide]
0.09 µM	Cc1ncccc1C(=O)Nc1ccc(-c2cc(NC(=O)C3CCC(F)(F)CC3)n(C)n2)c(F)c1 [SW394696, N-(4-(5-(4,4-Difluorocyclohexane-1-carboxamido)-1-methyl-1H-pyrazol-3-yl)-3-fluorophen-yl)-2-methylnicotinamide]
0.77 µM	Cn1nc(-c2ccc(NC(=O)c3ccccc3N3CCOCC3)cc2)cc1NC(=O)c1ccccc1 [SW394697, N-(4-(5-Benzamido-1-methyl-1H-pyrazol-3-yl)phenyl)-2-morpholinobenzamide]
10 µM	CN1CCN(c2ccccc2C(=O)Nc2ccc(-c3cc(NC(=O)c4ccccc4)n(C)n3)cc2)CC1 [SW394698, N-(4-(5-Benzamido-1-methyl-1H-pyrazol-3-yl)phenyl)-2-(4-methylpiperazin-1-yl)benzamide]
0.02 µM	Cc1ncccc1C(=O)Nc1ccc(-c2cc(NC(=O)c3ccccc3Cl)n(C)n2)c(F)c1 [SW394699, N-(4-(5-(2-chlorobenzamido)-1-methyl-1H-pyrazol-3-yl)-3-fluorophenyl)-2-methylnicotinamide]
0.07 µM	Cn1nc(-c2ccc(NC(=O)c3ccccc3COCCN=[N+]=[N-])cc2)cc1NC(=O)c1cccc(C(=O)c2ccccc2)c1 [SW394738, 2-((2-azidoethoxy)methyl)-N-(4-(5-(3-benzoylbenzamido)-1-methyl-1H-pyrazol-3-yl)phenyl)benzamide]
0.17 µM	C#Cc1cccc(C(=O)Nc2cc(-c3ccc(NC(=O)c4ccccc4COCCNC(=O)CCC4(C)N=N4)cc3)nn2C)c1 [SW394741, N-(4-(5-(3-ethynylbenzamido)-1-methyl-1H-pyrazol-3-yl)phenyl)-2-((2-(3-(3-methyl-3H-diazirin-3-yl)propanamido)ethoxy)methyl)benzamide]
15 µM	Cc1ncccc1C(=O)Nc1ccc(-c2cc(NC(=O)c3ccccc3)n(C)n2)cc1F [SW394743, N-(4-(5-Benzamido-1-methyl-1H-pyrazol-3-yl)-2-fluorophenyl)-2-methylnicotinamide]
> 50 µM	Cc1ncccc1C(=O)Nc1ccc(-c2cc(NC(=O)C3CCC(F)(F)CC3)n(C)n2)cc1F [SW394744, N-(4-(5-(4,4-Difluorocyclohexane-1-carboxamido)-1-methyl-1H-pyrazol-3-yl)-2-fluorophen-yl)-2-methylnicotinamide]
21.7 µM	Cc1ncccc1C(=O)Nc1ccc(-c2cc(NC(=O)c3ccccc3F)n(C)n2)cc1F [SW394745, N-(2-Fluoro-4-(5-(2-fluorobenzamido)-1-methyl-1H-pyrazol-3-yl)phenyl)-2-methylnicotinamide]
0.13 µM	Cc1ncccc1C(=O)Nc1ccc(-c2cc(NC(=O)C3CCOCC3)n(C)n2)cc1 [SW394746, 2-Methyl-N-(4-(1-methyl-5-(tetrahydro-2H-pyran-4-carboxamido)-1H-pyrazol-3-yl)phenyl)nicotinamide]
0.02 µM	Cn1nc(-c2ccc(NC(=O)c3cccc(CN=[N+]=[N-])c3Cl)cc2)cc1NC(=O)c1ccccc1Cl [SW394763, 3-(azidomethyl)-2-chloro-N-(4-(5-(2-chlorobenzamido)-1-methyl-1H-pyrazol-3-yl)phenyl)benzamide]
0.3 µM	Cn1nc(-c2ccc(NC(=O)c3ccccc3C3CCN(C(=O)OC(C)(C)C)CC3)cc2)cc1NC(=O)c1ccccc1 [SW394764, tert-butyl4-(2-((4-(5-benzamido-1-methyl-1H-pyrazol-3-yl)phenyl)carbamoyl)phenyl)piperidine-1-carboxylate]
0.27 µM	Cn1nc(-c2ccc(NC(=O)c3ccccc3C3CCNCC3)cc2)cc1NC(=O)c1ccccc1 [SW394767, N-(4-(5-benzamido-1-methyl-1H-pyrazol-3-yl)phenyl)-2-(piperidin-4-yl)benzamide]
0.086 µM	Cn1nc(-c2ccc(NC(=O)c3cccc(CN)c3Cl)cc2)cc1NC(=O)c1ccccc1Cl [SW394771, 3-(aminomethyl)-2-chloro-N-(4-(5-(2-chlorobenzamido)-1-methyl-1H-pyrazol-3-yl)phenyl)benzamide]
0.02 µM	CN(C)c1cccc(C(=O)Nc2cc(-c3ccc(NC(=O)c4ccccc4Cl)cc3)nn2C)c1 [SW394870, 2-Chloro-N-(4-(5-(3-(dimethylamino)benzamido)-1-methyl-1H-pyrazol-3-yl)phenyl)benzamide]
0.01 µM	Cc1ncccc1C(=O)Nc1ccc(-c2cc(NC(=O)c3cccc(N(C)C)c3)n(C)n2)cc1 [SW394871, N-(4-(5-(3-(Dimethylamino)benzamido)-1-methyl-1H-pyrazol-3-yl)phenyl)-2-methylnicotine-amide]
0.11 µM	Cn1nc(-c2ccc(NC(=O)c3ccccc3Cl)cc2)cc1NC(=O)Nc1ccccc1 [SW394872, 2-Chloro-N-(4-(1-methyl-5-(3-phenylureido)-1H-pyrazol-3-yl)phenyl)benzamide]
0.29 µM	Cn1nc(-c2ccc(NC(=O)c3ccccc3Cl)cc2)cc1NC(=O)N1CCOCC1 [SW394873, N-(3-(4-(2-Chlorobenzamido)phenyl)-1-methyl-1H-pyrazol-5-yl)morpholine-4-carboxamide]
0.067 µM	Cn1nc(-c2ccc(NC(=O)c3ccccc3Cl)cc2)cc1NC(=O)N1CCCCC1 [SW394874, N-(3-(4-(2-Chlorobenzamido)phenyl)-1-methyl-1H-pyrazol-5-yl)piperidine-1-carboxamide]
0.19 µM	Cn1nc(-c2ccc(NC(=O)c3ccccc3Cl)cc2)cc1NC(=O)N1CCCC1 [SW394876, N-(3-(4-(2-Chlorobenzamido)phenyl)-1-methyl-1H-pyrazol-5-yl)pyrrolidine-1-carboxamide]
0.01 µM	COC(=O)c1cccc(C(=O)Nc2cc(-c3ccc(NC(=O)c4ccccc4Cl)cc3)nn2C)c1 [SW394878, Methyl 3-((3-(4-(2-chlorobenzamido)phenyl)-1-methyl-1H-pyrazol-5-yl)carbamoyl)benzoate]
1.04 µM	Cc1ncccc1C(=O)Nc1ccc(-c2cc(N(C)C(=O)c3ccccc3)n(C)n2)cc1 [SW394880-1, 2-methyl-N-(4-(1-methyl-5-(N-methylbenzamido)-1H-pyrazol-3-yl)phenyl)nicotinamide]
> 5 µM	Cn1nc(-c2ccc(NC(=O)N3CCOCC3)cc2)cc1NC(=O)c1ccccc1 [SW394892-1, N-(4-(5-benzamido-1-methyl-1H-pyrazol-3-yl)phenyl)morpholine-4-carboxamide]
> 5 µM	Cn1nc(-c2ccc(NC(=O)N3CCCC3)cc2)cc1NC(=O)c1ccccc1 [SW394893-1, N-(4-(5-benzamido-1-methyl-1H-pyrazol-3-yl)phenyl)pyrrolidine-1-carboxamide]

Same assay, conditions: wild type HCT116; 10-point dose response in triplicate; multiple values = separate independent experiments

HCT116 IC50 (uM) HCT116 WT	Structure (SMILES)
inactive	Cn1nc(-c2ccc(NC(=O)c3ccccc3Cl)cc2)cc1NS(=O)(=O)c1ccccc1 [SW394768, 2-Chloro-N-(4-(1-methyl-5-(phenylsulfonamido)-1H-pyrazol-3-yl)phenyl)benzamide]
inactive	Cn1nc(-c2ccc(NC(=O)c3ccccc3Cl)cc2)cc1NC(=O)c1cccc(C(=O)O)c1 [SW394800, 3-((3-(4-(2-Chlorobenzamido)phenyl)-1-methyl-1H-pyrazol-5-yl)carbamoyl)benzoic acid]
inactive	CN1CCN(C(=O)Nc2cc(-c3ccc(NC(=O)c4ccccc4Cl)cc3)nn2C)CC1 [SW394875, N-(3-(4-(2-Chlorobenzamido)phenyl)-1-methyl-1H-pyrazol-5-yl)-4-methylpiperazine-1-carb-oxamide]
inactive	CC(=O)N1CCN(C(=O)Nc2cc(-c3ccc(NC(=O)c4ccccc4Cl)cc3)nn2C)CC1 [SW394877, 4-Acetyl-N-(3-(4-(2-chlorobenzamido)phenyl)-1-methyl-1H-pyrazol-5-yl)piperazine-1-carb-oxamide]

Same assay, conditions: wild type HCT116; 10-point dose response in triplicate; multiple values = separate independent experiments; read-out: HCT116 IC50 (uM) HCT116 WT

IC50	Structure (SMILES)
0.24 µM	Cn1nc(-c2ccc(NC(=O)N3CCCCC3)cc2)cc1NC(=O)c1ccccc1 [SW394891-1, N-(4-(5-benzamido-1-methyl-1H-pyrazol-3-yl)phenyl)piperidine-1-carboxamide]
